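Growth conditions: 96-well plates. Treatment: test compound, 48 hours, 5 concentrations. Analysis: linear interpolation between bracketing concentrations; unreached endpoints set to highest concentration. TGI is the concentration that stops growth completely.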 Bounds are passed on as bounds.

Among the test systems are RPMI-8226 leukemia; MALME-3M melanoma; K-562 leukemia; SF-295 CNS; HOP-92 NSCLC; HL-60(TB) leukemia; KM12 colon; IGROV1 ovarian; NCI-H460 lung; HS 578T breast; M14 melanoma; SF-539 CNS; T-47D breast; U251 CNS; A498 renal; NCI-H23 lung; NCI/ADR-RES ovarian; COLO 205 colon.
Holding throughout (assay): NCI-60 cell line screen, 48 h

On to `Cc1cc(S(=O)(=O)Nc2nnc3cnc4ccccc4n23)c(S)cc1Cl`, for which the TGI was greater than 100 µM in the assay on RPMI-8226 leukemia; greater than 100 µM in the assay with MALME-3M melanoma; greater than 100 µM in the assay on K-562 leukemia; greater than 100 µM with SF-295 CNS; greater than 85.9 µM in the assay on HOP-92 NSCLC; greater than 100 µM in the assay on HL-60(TB) leukemia. Also, the TGI in the assay on KM12 colon, in the assay on IGROV1 ovarian, with NCI-H460 lung, in the assay with HS 578T breast, in the assay with M14 melanoma and in the assay with SF-539 CNS was greater than 100 µM each time. Also, the TGI with T-47D breast, in the assay with U251 CNS, in the assay on A498 renal, in the assay on NCI-H23 lung, in the assay on NCI/ADR-RES ovarian and in the assay with COLO 205 colon was greater than 100 µM throughout.

On to `NC(CSSCC(N)=NCC12CC3CC(CC(C3)C1)C2)=NCC12CC3CC(CC(C3)C1)C2`, for which the TGI was 6.17 µM in the assay on RPMI-8226 leukemia; 33.6 µM with MALME-3M melanoma; 27.2 µM with K-562 leukemia; 31.3 µM in the assay on SF-295 CNS; 32.7 µM with HOP-92 NSCLC; 26.3 µM with HL-60(TB) leukemia. Besides, the TGI in the assay on KM12 colon was 29 µM; in the assay with IGROV1 ovarian, 40.9 µM; in the assay on NCI-H460 lung, greater than 100 µM; with HS 578T breast, 50.7 µM; in the assay on M14 melanoma it was 50.2 µM; with SF-539 CNS, 34.3 µM. The TGI was greater than 100 µM with T-47D breast; 29 µM with U251 CNS; 51 µM in the assay with A498 renal; 32.3 µM with NCI-H23 lung; 33.8 µM in the assay on NCI/ADR-RES ovarian; 52.5 µM with COLO 205 colon.

As to `NCC(O)CNC(=O)c1ccc(-c2ccc(-c3ccc(C(=O)NCC(O)CN)cc3)o2)cc1` (stereo not drawn), the TGI in the assay with RPMI-8226 leukemia is greater than 100 µM; in the assay with MALME-3M melanoma, 44.2 µM; with K-562 leukemia, greater than 100 µM; in the assay on SF-295 CNS, 56.6 µM; in the assay on HOP-92 NSCLC, 52.1 µM; in the assay on HL-60(TB) leukemia, greater than 100 µM. For the same molecule, the TGI with KM12 colon is greater than 100 µM; with IGROV1 ovarian, greater than 100 µM; in the assay with NCI-H460 lung, greater than 100 µM; in the assay with HS 578T breast, 59.7 µM; in the assay on M14 melanoma it was greater than 100 µM; in the assay with SF-539 CNS it was 41.6 µM. The TGI in the assay with T-47D breast was 92.6 µM; with U251 CNS it was 42.6 µM; in the assay on A498 renal, 73.5 µM; with NCI-H23 lung it was greater than 100 µM; in the assay on NCI/ADR-RES ovarian, greater than 100 µM; in the assay on COLO 205 colon it was greater than 100 µM.

Consider `Cc1c(N=Nc2ccccc2)c(C)n(C2OC(CO)C(O)C(O)C2O)c(=S)c1C#N` (stereo not drawn), for which the TGI with RPMI-8226 leukemia is greater than 100 µM; in the assay on MALME-3M melanoma, greater than 100 µM; with K-562 leukemia, greater than 100 µM; with SF-295 CNS, greater than 100 µM; in the assay on HOP-92 NSCLC, 48.9 µM; in the assay on HL-60(TB) leukemia, greater than 100 µM. The TGI is greater than 100 µM in the assay on KM12 colon; greater than 100 µM with IGROV1 ovarian; greater than 100 µM with NCI-H460 lung; greater than 100 µM in the assay on HS 578T breast; 65.8 µM with M14 melanoma; 57.8 µM in the assay with SF-539 CNS. Further, the TGI in the assay on T-47D breast is 95.8 µM; with U251 CNS it was 87.2 µM; in the assay with A498 renal it was 72.5 µM; with NCI-H23 lung it was greater than 100 µM; with NCI/ADR-RES ovarian it was greater than 100 µM; with COLO 205 colon, greater than 100 µM.

Take `CC(C)(C)c1cc(OCc2nn3c(Cc4ccccc4)nnc3s2)c(Cl)cc1OCc1nn2c(Cc3ccccc3)nnc2s1`: the TGI in the assay with RPMI-8226 leukemia was greater than 100 µM; in the assay on MALME-3M melanoma it was 36.6 µM; with K-562 leukemia, greater than 100 µM; in the assay with SF-295 CNS it was greater than 100 µM; in the assay with HOP-92 NSCLC, 52.9 µM; in the assay with HL-60(TB) leukemia, 97.9 µM. The TGI in the assay with KM12 colon, in the assay on IGROV1 ovarian, in the assay on NCI-H460 lung, in the assay on HS 578T breast, in the assay with M14 melanoma and in the assay on SF-539 CNS was greater than 100 µM each time. The TGI in the assay on T-47D breast, in the assay on U251 CNS, with A498 renal, in the assay with NCI-H23 lung, in the assay on NCI/ADR-RES ovarian and in the assay on COLO 205 colon was greater than 100 µM in each case.

As for `Cc1cc(S(=O)(=O)Nc2nc3ccccc3nc2-c2ccc(Cl)cc2)c(S)cc1Cl`, the TGI in the assay on RPMI-8226 leukemia was 68.5 µM; in the assay on MALME-3M melanoma, 41.4 µM; with K-562 leukemia, 70.6 µM; with SF-295 CNS, 35 µM; in the assay on HOP-92 NSCLC, 46.9 µM; in the assay on HL-60(TB) leukemia, 44.1 µM. Also, the TGI with KM12 colon was 35.4 µM; with IGROV1 ovarian it was 24.9 µM; with NCI-H460 lung it was 29.4 µM; with HS 578T breast, 73 µM; in the assay with M14 melanoma, 39.5 µM; in the assay on SF-539 CNS, 34 µM. In addition, the TGI in the assay with T-47D breast was 32.8 µM; in the assay with U251 CNS, 34 µM; in the assay on A498 renal it was 30.7 µM; in the assay on NCI-H23 lung, 33.4 µM; with NCI/ADR-RES ovarian, 36.9 µM; with COLO 205 colon it was 30.2 µM.

These data come from PubChem BioAssay (NCI).
